This note sets out measurements from patent US20220267313A1, “DIHYDROPYRIMIDINE DERIVATIVES AND USES THEREOF IN THE TREATMENT OF HBV INFECTION OR OF HBV-INDUCED DISEASES” (Janssen Sciences Ireland Unlimited Company, priority 2019, published 2022).

One data set has as its system HBV. Kind of data set: Anti-HBV activity: HBV DNA in culture medium by qPCR, HepG2.2.15 cells. The conditions noted are these: Hepatitis B virus, 144 h, 6 days treatment. Format: cell-based. On the procedure: (§1) HepG2.2.15 (the HepG2.2.15 cell line can be produced by transfection of the HepG2 cell line as described in Sells, Chen, and Acs 1987 (Proc. Natl. Acad. Sci. USA 84: 1005-1009), and the HepG2 cell line is available from ATCC® under number HB-8065™)
(§2) HepG2.2.15 cells were plated into 96-well plate in 2% FBS culture medium at the density of 40,000 cells/well and 5,000 cells/well for HBV inhibitory activity and cytotoxicity determination, respectively. After incubation at 37° C., 5% CO2 overnight, cells were treated with medium containing compounds for 6 days with medium and compounds refreshed after 3 days of treatment. Each compound was tested in a 1:3 serial dilutions at 8 different concentrations in triplicate. The highest concentration of the compounds was 10 uM or 1 uM for anti-HBV activity assay and 100 uM for cytotoxicity determination.
The change of HBV DNA level induced by the compounds was assessed by quantitative real-time polymerase chain reaction (qPCR). Briefly, the HBV DNA in the culture medium was extracted using QIAamp 96 DNA Blood Kit according to the manual and then quantified by real-time PCR assay using the primers and probe in the table 1 below.
(§3) EC50 and CC50 values are calculated by the GRAPHPAD PRISM software.

A short description of data set [1]: Cytotoxicity determination by CCK-8 assay, HepG2.2.15 cells. Format: cell-based. The conditions noted are these: human, 6 days treatment. On the procedure: as §1, §2
Cell viability was determined by CCK-8 assay. After 6 days of compounds treatment, 20 μl CCK-8 reagents were added to each well of cytotoxicity assay plates. Cell plates were incubated at 37° C., 5% CO2 for 2.5 h. The absorbance at 450 nm wavelength and the absorbance at 630 nm wavelength as reference was measured.
as §3

Where only a bound is given, the exact number is not on record here.

For `COC(=O)C1=C(C23C4C5C2C2C3C4C52C(=O)O)NC(c2nccn2C)=NC1c1ccc(F)c(F)c1Cl` (single isomer, unassigned) [Ia-2, (R*)-4-(6-(2-chloro-3,4-difluorophenyl)-5-(methoxycarbonyl)-2-(1-methyl-1H-imidazol-2-yl)-3,6-dihydropyrimidin-4-yl)cubane-1-carboxylic Acid], in the data set on HBV, the EC50 was greater than 100000 nM. Moreover, in data set [1], the CC50 at 6 days turned out to be 295 nM.

Regarding `COC(=O)C1=C(C23C4C5C2C2C3C4C52C(=O)O)NC(c2nccs2)=N[C@@H]1c1ccc(F)c(F)c1C` (single isomer, unassigned) [Ia-3], the EC50 with HBV is greater than 50000 nM. In data set [1], this molecule gave a CC50 at 6 days of 45 nM.

In the data set on HBV, `CCOC(=O)C1=C(C23C4C5C2C2C3C4C52C(=O)O)NC(c2nccn2C)=NC1c1ccc(F)c(F)c1Cl` (single isomer, unassigned) [Ia-4, (R*)-4-(6-(2-chloro-3,4-difluorophenyl)-5-(ethoxycarbonyl)-2-(1-methyl-1H-imidazol-2-yl)-3,6-dihydropyrimidin-4-yl)cubane-1-carboxylic Acid] came in with an EC50 greater than 50000 nM. This molecule also displayed a CC50 at 6 days in data set [1] of 55 nM.

In the data set with HBV, `CCOC(=O)C1=C(C23C4C5C2C2C3C4C52C(=O)O)NC(c2nccs2)=NC1c1ccc(F)cc1C` (single isomer, unassigned) [Ia-5, (R*)-4-(5-(ethoxycarbonyl)-6-(4-fluoro-2-methylphenyl)-2-(thiazol-2-yl)-3,6-dihydropyrimidin-4-yl)cubane-1-carboxylic Acid] gave an EC50 greater than 50000 nM. This molecule showed a CC50 at 6 days in data set [1] of 43 nM.

Consider `CCOC(=O)C1=C(C23C4C5C2C2C3C4C52C(=O)O)NC(c2nccs2)=N[C@H]1c1ccc(F)cc1Br` (single isomer, unassigned) [Ia-6, (R*)-4-(6-(2-bromo-4-fluorophenyl)-5-(ethoxycarbonyl)-2-(thiazol-2-yl)-3,6-dihydropyrimidin-4-yl)cubane-1-carboxylic Acid], for which, in the data set on HBV, the EC50 was greater than 12500 nM. The CC50 at 6 days in data set [1] worked out at 11.5 nM.

`COC(=O)C1=C(C23C4C5C2C2C3C4C52CC(=O)O)NC(c2nccs2)=N[C@@H]1c1ccc(F)cc1Cl` (single isomer, unassigned) [Ib-1, 2-((1S,2R,3R,8S)-4-((S*)-6-(2-chloro-4-fluorophenyl)-5-(methoxycarbonyl)-2-(thiazol-2-yl)-3,6-dihydropyrimidin-4-yl)cuban-1-yl)acetic Acid] returned an EC50 in the data set on HBV of 42000 nM. In data set [1], this molecule came in with a CC50 at 6 days of 360 nM.

For the molecule `COC(=O)C1=C(C23C4C5C2C2C3C4C52c2nc(C(=O)O)co2)NC(c2nccs2)=N[C@@H]1c1ccc(F)cc1Cl` (single isomer, unassigned) [Ib-2, 2-((1R,2R,3R,8S)-4-((S*)-6-(2-chloro-4-fluoro-phenyl)-5-(methoxycarbonyl)-2-(thiazol-2-yl)-3,6-dihydropyrimidin-4-yl)cuban-1-yl)oxazole-4-carboxylic Acid], the EC50 in the data set on HBV turned out to be 24000 nM. In addition, the CC50 at 6 days in data set [1] was found to be 110 nM.

Turning to `COC(=O)C1=C(C23C4C5C2C2C3C4C52C(=O)O)NC(c2nccs2)=N[C@@H]1c1ccc(F)cc1Cl` (single isomer, unassigned) [Ib-3, (1R,2R,3R,8S)-4-((S*)-6-(2-chloro-4-fluorophenyl)-5-(methoxycarbonyl)-2-(thiazol-2-yl)-3,6-dihydropyrimidin-4-yl)cubane-1-carboxylic Acid], the EC50 in the data set with HBV was 70000 nM. In addition, half-maximal cytotoxicity in data set [1] (CC50 at 6 days) was put at 84 nM.

In the data set on HBV, `COC(=O)C1=C(C23C4C5C2C2C3C4C52C(=O)O)NC(c2nccs2)=N[C@@H]1c1ccc(F)c(F)c1Cl` (single isomer, unassigned) [Ib-4, (1R,2R,3R,8S)-4-((S*)-6-(2-chloro-3,4-difluorophenyl)-5-(methoxycarbonyl)-2-(thiazol-2-yl)-3,6-dihydropyrimidin-4-yl)cubane-1-carboxylic Acid] registered an EC50 of 51000 nM. Further, the midpoint of cytotoxicity in data set [1], the CC50 at 6 days, lay at 22 nM.

The molecule `CCOC(=O)C1=C(C23C4C5C2C2C3C4C52C(=O)O)NC(c2nccs2)=N[C@H]1c1cccc(F)c1C` (single isomer, unassigned) [Ib-5, (1R,2R,3R,8S)-4-((S*)-5-(ethoxycarbonyl)-6-(3-fluoro-2-methylphenyl)-2-(thiazol-2-yl)-3,6-dihydropyrimidin-4-yl)cubane-1-carboxylic Acid] had an EC50 in the data set on HBV of 49000 nM. In addition, in data set [1], half-maximal cytotoxicity (CC50 at 6 days) was put at 17 nM.

Consider `COC(=O)C1=C(C23C4C5C2C2C3C4C52C(=O)O)NC(c2nccs2)=N[C@@H]1c1cccc(F)c1Cl` (single isomer, unassigned) [Ib-8, (1S,2R,3S,8S)-4-((S*)-6-(2-chloro-3-fluorophenyl)-5-(methoxycarbonyl)-2-(thiazol-2-yl)-3,6-dihydropyrimidin-4-yl)cubane-1-carboxylic Acid], for which the EC50 in the data set with HBV is greater than 50000 nM. The same molecule gave a CC50 at 6 days in data set [1] of 132 nM.

Consider `CCCOC(=O)C1=C(C23C4C5C2C2C3C4C52C(=O)O)NC(c2nccs2)=NC1c1ccc(F)c(F)c1Cl` (single isomer, unassigned) [Ib-11, (S*)-4-(6-(2-chloro-3,4-difluorophenyl)-5-(propoxycarbonyl)-2-(thiazol-2-yl)-3,6-dihydropyrimidin-4-yl)cubane-1-carboxylic Acid], for which the concentration giving a half-maximal response (EC50) in the data set on HBV worked out at 22000 nM. In addition, the CC50 at 6 days in data set [1] was 52 nM.

`CC(C)OC(=O)C1=C(C23C4C5C2C2C3C4C52C(=O)O)NC(c2nccs2)=NC1c1ccc(F)c(F)c1Cl` (single isomer, unassigned) [Ib-12, (S*)-6-(6-Carboxy-cuban-3-yl)-4-(2-chloro-3,4-difluoro-phenyl)-2-thiazol-2-yl-1,4-dihydro-pyrimidine-5-carboxylic Acid Isopropyl Ester] came in with an EC50 with HBV of 28000 nM. Besides, the CC50 at 6 days in data set [1] stood at 37 nM.

For the molecule `CCOC(=O)C1=C(C23C4C5C2C2C3C4C52C(=O)O)NC(c2ncc(F)cc2F)=NC1c1cccc(F)c1C` (single isomer, unassigned) [Ib-18, (S*)-4-(2-(3,5-difluoropyridin-2-yl)-5-(ethoxycarbonyl)-6-(3-fluoro-2-methylphenyl)-3,6-dihydropyrimidin-4-yl)cubane-1-carboxylic Acid], the EC50 in the data set with HBV was greater than 12500 nM. Further, in data set [1], the CC50 at 6 days worked out at 61 nM.

Molecule `CCOC(=O)C1=C(C23C4C5C2C2C3C4C52C(=O)O)NC(c2nccs2)=N[C@@H]1c1cccc(F)c1Br` (single isomer, unassigned) [Ib-19, (1S,2R,3S,8S)-4-((S*)-6-(2-bromo-3-fluorophenyl)-5-(ethoxycarbonyl)-2-(thiazol-2-yl)-3,6-dihydropyrimidin-4-yl)cubane-1-carboxylic Acid] had an EC50 in the data set with HBV greater than 25000 nM. In data set [1], it took 12.5 nM to reach half-maximal cytotoxicity (CC50 at 6 days).

For `CCOC(=O)C1=C(C23C4C5C2C2C3C4C52C(=O)O)NC(c2nccs2)=NC1c1ccc(F)c(F)c1F` (single isomer, unassigned) [Ib-20, (S*)-4-(5-(ethoxycarbonyl)-2-(thiazol-2-yl)-6-(2,3,4-trifluorophenyl)-3,6-dihydropyrimidin-4-yl)cubane-1-carboxylic Acid], a half-maximal effect in the data set with HBV (EC50) was put at 46000 nM. Moreover, in data set [1], the CC50 at 6 days is 28 nM.

Molecule `COC(=O)C1=C(C23C4C5C2C2C3C4C52C(=O)O)NC(c2nccs2)=NC1c1ccc(F)cc1C` (single isomer, unassigned) [Ib-21, (S*)-4-(6-(4-fluoro-2-methylphenyl)-5-(methoxycarbonyl)-2-(thiazol-2-yl)-3,6-dihydropyrimidin-4-yl)cubane-1-carboxylic Acid] came in with an EC50 in the data set on HBV greater than 50000 nM. Besides, the CC50 at 6 days in data set [1] came to 250 nM.

For `CCOC(=O)C1=C(C23C4C5C2C2C3C4C52C(=O)O)NC(c2nccs2)=NC1c1ccc(Cl)c(F)c1` (single isomer, unassigned) [Ib-23, (S*)-4-(6-(4-chloro-3-fluorophenyl)-5-(ethoxycarbonyl)-2-(thiazol-2-yl)-3,6-dihydropyrimidin-4-yl)cubane-1-carboxylic Acid], the EC50 in the data set on HBV is greater than 6250 nM. Moreover, the CC50 at 6 days in data set [1] was 13 nM.

As to `COC(=O)C1=C(C23C4C5C2C2C3C4C52C(=O)O)NC(c2ncc(F)cc2F)=NC1c1cccc(F)c1C` (single isomer, unassigned) [Ib-26, (S*)-4-(2-(3,5-difluoropyridin-2-yl)-5-(methoxycarbonyl)-6-(3-fluoro-2-methylphenyl)-3,6-dihydropyrimidin-4-yl)cubane-1-carboxylic Acid], the EC50 with HBV was greater than 12500 nM. The molecule also gave a cytotoxic concentration (CC50) at 6 days in data set [1] of 160 nM.

`CCOC(=O)C1=C(C23C4C5C2C2C3C4C52CC(C)(C)C(=O)O)NC(c2nccs2)=N[C@@H]1c1ccc(F)c(F)c1Cl` (single isomer, unassigned) [Ib-28, (S*)-3-(4-(6-(2-chloro-3,4-difluorophenyl)-5-(ethoxycarbonyl)-2-(thiazol-2-yl)-3,6-dihydropyrimidin-4-yl)cuban-1-yl)-2,2-dimethylpropanoic Acid] gave an EC50 in the data set with HBV of 16000 nM. Also, the midpoint of cytotoxicity in data set [1], the CC50 at 6 days, lay at 26.5 nM.

For `COC(=O)C1=C(C23C4C5C2C2C3C4C52C(=O)O)NC(c2nccs2)=N[C@@H]1c1cccc(F)c1C` (stereo in doubt) [Ia-1, (2R,3R,5R,6R,7R,8R)-4-((R*)-6-(3-fluoro-2-methylphenyl)-5-(methoxycarbonyl)-2-(thiazol-2-yl)-3,6-dihydropyrimidin-4-yl)cubane-1-carboxylic Acid], the EC50 in the data set on HBV was greater than 50000 nM. The molecule further returned a half-maximal cytotoxic concentration (CC50) at 6 days in data set [1] of 204 nM.

One may read the EC50 as the midpoint of the concentration-response curve. For orientation: CC50 means the concentration at which the toxic effect on the cells reaches its halfway point. A high value points to lower toxicity to the cells.
